pIC50: −log10 of the molar value.
How the values were obtained:
Format in all cases: biochemical
PI3Kα = PI3Kα (Homo sapiens, UniProt P42336); assay: PI3K-alpha fluorescence polarization assay; details: read-out: PI3Kα Median IC50
PI3Kγ = PI3Kγ (Homo sapiens, UniProt P48736); assay: PI3K-gamma fluorescence polarization assay; details: read-out: PI3Kγ Median IC50
mTOR = mTOR (Homo sapiens, UniProt P42345); assay: mTOR enzyme assay (DELFIA format, His6-S6K substrate); details: read-out: mTOR Kinase Median IC50

PI3Kα, sequence (P42336 whole entry, species assumed): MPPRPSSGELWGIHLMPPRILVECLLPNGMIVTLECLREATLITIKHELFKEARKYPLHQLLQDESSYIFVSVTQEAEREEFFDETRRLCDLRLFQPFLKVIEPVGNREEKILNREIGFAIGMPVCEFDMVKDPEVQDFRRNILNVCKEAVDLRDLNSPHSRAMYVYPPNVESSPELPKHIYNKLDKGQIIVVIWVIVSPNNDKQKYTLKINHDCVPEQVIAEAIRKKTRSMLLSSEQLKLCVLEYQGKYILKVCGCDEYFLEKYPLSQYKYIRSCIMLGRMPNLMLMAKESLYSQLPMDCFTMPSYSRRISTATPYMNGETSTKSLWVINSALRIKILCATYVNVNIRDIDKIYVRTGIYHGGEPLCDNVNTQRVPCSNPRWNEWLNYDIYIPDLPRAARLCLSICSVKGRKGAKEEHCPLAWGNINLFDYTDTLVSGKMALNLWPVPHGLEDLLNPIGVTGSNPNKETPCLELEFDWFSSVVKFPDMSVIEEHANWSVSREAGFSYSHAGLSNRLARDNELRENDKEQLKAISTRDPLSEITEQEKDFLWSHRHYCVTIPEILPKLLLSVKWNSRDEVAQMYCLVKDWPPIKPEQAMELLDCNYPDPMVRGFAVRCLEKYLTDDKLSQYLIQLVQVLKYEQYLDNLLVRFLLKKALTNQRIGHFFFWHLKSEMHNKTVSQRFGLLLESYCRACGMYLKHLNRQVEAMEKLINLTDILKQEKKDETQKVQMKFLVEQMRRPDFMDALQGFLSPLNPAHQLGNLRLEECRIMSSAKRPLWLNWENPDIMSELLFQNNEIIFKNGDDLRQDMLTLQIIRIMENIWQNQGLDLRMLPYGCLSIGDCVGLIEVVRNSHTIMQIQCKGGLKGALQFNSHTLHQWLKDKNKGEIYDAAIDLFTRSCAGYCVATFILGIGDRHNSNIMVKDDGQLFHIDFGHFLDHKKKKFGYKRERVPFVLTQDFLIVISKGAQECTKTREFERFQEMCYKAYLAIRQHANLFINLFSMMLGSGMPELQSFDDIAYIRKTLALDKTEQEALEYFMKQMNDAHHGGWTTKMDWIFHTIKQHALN
PI3Kα, sequence (P27986 whole entry partner, species assumed): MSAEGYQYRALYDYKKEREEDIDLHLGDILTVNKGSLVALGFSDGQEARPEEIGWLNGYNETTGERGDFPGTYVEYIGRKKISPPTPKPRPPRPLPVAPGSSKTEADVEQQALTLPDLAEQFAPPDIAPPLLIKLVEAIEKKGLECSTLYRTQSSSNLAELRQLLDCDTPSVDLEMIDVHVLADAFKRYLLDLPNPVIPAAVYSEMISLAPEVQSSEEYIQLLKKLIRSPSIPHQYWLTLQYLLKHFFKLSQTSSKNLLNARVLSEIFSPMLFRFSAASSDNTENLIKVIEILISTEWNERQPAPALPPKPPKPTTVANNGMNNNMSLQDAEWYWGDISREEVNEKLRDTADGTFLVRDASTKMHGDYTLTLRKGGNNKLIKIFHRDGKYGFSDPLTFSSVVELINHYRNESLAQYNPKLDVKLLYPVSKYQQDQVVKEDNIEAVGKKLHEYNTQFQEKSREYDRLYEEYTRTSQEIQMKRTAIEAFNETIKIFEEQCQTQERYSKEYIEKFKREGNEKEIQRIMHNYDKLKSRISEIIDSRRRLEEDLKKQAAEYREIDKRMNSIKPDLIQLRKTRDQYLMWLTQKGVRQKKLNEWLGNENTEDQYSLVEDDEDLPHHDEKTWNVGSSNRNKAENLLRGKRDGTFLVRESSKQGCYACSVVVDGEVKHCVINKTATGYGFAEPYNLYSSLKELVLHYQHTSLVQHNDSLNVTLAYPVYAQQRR
PI3Kγ, sequence (P48736 whole entry, species assumed): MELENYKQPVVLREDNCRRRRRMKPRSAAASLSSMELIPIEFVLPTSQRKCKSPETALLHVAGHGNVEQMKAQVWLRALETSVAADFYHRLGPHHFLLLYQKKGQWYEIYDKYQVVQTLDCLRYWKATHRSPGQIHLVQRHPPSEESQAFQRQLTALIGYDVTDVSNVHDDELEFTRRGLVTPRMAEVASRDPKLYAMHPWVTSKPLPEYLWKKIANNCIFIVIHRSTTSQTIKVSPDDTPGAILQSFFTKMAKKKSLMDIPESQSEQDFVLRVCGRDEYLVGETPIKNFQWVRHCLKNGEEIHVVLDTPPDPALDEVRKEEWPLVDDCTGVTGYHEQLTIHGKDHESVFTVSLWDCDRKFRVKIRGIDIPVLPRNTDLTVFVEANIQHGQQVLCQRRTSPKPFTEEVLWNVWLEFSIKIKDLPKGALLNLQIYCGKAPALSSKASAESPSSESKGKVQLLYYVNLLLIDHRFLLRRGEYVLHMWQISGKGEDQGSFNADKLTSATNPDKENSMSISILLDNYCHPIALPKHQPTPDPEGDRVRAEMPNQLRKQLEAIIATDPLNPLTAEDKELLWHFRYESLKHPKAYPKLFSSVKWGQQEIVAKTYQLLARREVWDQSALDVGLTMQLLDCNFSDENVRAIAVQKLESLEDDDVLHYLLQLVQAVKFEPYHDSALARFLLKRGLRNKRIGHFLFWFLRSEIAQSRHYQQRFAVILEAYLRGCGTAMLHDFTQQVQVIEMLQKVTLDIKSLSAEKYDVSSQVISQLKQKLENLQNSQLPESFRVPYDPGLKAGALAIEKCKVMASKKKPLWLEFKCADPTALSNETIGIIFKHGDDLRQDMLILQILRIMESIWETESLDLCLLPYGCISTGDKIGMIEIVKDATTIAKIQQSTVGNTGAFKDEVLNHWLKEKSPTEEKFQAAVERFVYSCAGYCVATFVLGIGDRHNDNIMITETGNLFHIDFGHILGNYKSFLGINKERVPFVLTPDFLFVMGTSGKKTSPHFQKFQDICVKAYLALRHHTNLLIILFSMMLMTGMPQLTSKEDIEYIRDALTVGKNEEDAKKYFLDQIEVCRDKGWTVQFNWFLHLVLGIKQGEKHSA

Row | pIC50 (PI3Kα) | pIC50 (PI3Kγ) | pIC50 (mTOR) | Compound
1 | 7.54 | 7.27 | 8.85 | Cn1cc(/C=C2\Oc3cccc(O)c3C2=O)c2c(-c3ccc(C(=O)N4CCC(O)C4)cc3)ccnc21 (stereo not drawn) [Compound 245, (2Z)-4-hydroxy-2-[(4-{4-[(3-hydroxypyrrolidin-1-yl)carbonyl]phenyl}-1-methyl-1H-pyrrolo[2,3-b]pyridin-3-yl)methylene]-1-benzofuran-3(2H)-one]
2 | 6.91 | 6.59 | 8.31 | Cn1cc(/C=C2\Oc3cccc(O)c3C2=O)c2c(-c3ccc(F)c(C(=O)Nc4ccccc4)c3)ccnc21 [Compound 137, 2-fluoro-5-{3-[(Z)-(4-hydroxy-3-oxo-1-benzofuran-2(3H)-ylidene)methyl]-1-methyl-1H-pyrrolo[2,3-b]pyridin-4-yl}-N-phenylbenzamide]
3 | 6.75 | 6.83 | 8.07 | CN(C)CCNC(=O)c1ccc(-c2ccnc3c2c(/C=C2\Oc4cccc(O)c4C2=O)cn3C)cc1 [Compound 158, N-[2-(dimethylamino)ethyl]-4-{3-[(Z)-(4-hydroxy-3-oxo-1-benzofuran-2(3H)-ylidene)methyl]-1-methyl-1H-pyrrolo[2,3-b]pyridin-4-yl}benzamide]
4 | < 5.00 | 6.05 | 7.65 | CN(C)CCNC(=O)C1CCN(c2ccnc3c2c(/C=C2\Oc4ccc(NC(=O)Nc5cccnc5)cc4C2=O)cn3C)CC1 [Compound 261, N-[2-(dimethylamino)ethyl]-1-{1-methyl-3-[(Z)-{3-oxo-5-[(pyridin-3-ylcarbamoyl)amino]-1-benzofuran-2(3H)-ylidene}methyl]-1H-pyrrolo[2,3-b]pyridin-4-yl}piperidine-4-carboxamide]
5 | 7.59 | 7.10 | 8.46 | Cn1cc(/C=C2\Oc3cccc(O)c3C2=O)c2c(-c3ccc(S(=O)(=O)N4CCCC4)cc3)ccnc21 [Compound 190, (2Z)-4-hydroxy-2-({1-methyl-4-[4-(pyrrolidin-1-ylsulfonyl)phenyl]-1H-pyrrolo[2,3-b]pyridin-3-yl}methylidene)-1-benzofuran-3(2H)-one]
6 | 5.84 | 5.38 | 7.15 | CN(C)CCOc1cccc2c1C(=O)/C(=C/c1cn(C)c3nccc(-c4ccccc4)c13)O2 [Compound 159, (2Z)-4-[2-(dimethylamino)ethoxy]-2-[(1-methyl-4-phenyl-1H-pyrrolo[2,3-b]pyridin-3-yl)methylidene]-1-benzofuran-3(2H)-one]
7 | 6.13 | 5.45 | 6.98 | CN(C)C(=O)C1CCN(c2ccnc3c2c(/C=C2\Oc4ccc(NC(=O)NC5CCN(C(=O)C(F)(F)F)CC5)cc4C2=O)cn3C)CC1 [Compound 300, N,N-dimethyl-1-(1-methyl-3-{(Z)-[3-oxo-5-({[1-(trifluoroacetyl)piperidin-4-yl]carbamoyl}amino)-1-benzofuran-2(3H)-ylidene]methyl}-1H-pyrrolo[2,3-b]pyridin-4-yl)piperidine-4-carboxamide]
8 | 5.24 | < 5.00 | 6.69 | Cn1cc(/C=C2\Oc3ccc(NC(=O)Nc4nc5ccccc5n4C)cc3C2=O)c2c(N3CC4CCC(C3)O4)ccnc21 [Compound 289, 1-(1-methyl-1H-benzimidazol-2-yl)-3-[(2Z)-2-{[1-methyl-4-(8-oxa-3-azabicyclo[3.2.1]oct-3-yl)-1H-pyrrolo[2,3-b]pyridin-3-yl]methylidene}-3-oxo-2,3-dihydro-1-benzofuran-5-yl]urea]
9 | 6.71 | 5.76 | 7.42 | Cn1cc(/C=C2\Oc3ccc(NC(=O)Nc4cccnc4)cc3C2=O)c2c(N3CCC(C(=O)N4CC5CCC4CO5)CC3)ccnc21 (stereo not drawn) [Compound 233, 1-[(2Z)-2-({1-methyl-4-[4-(2-oxa-5-azabicyclo[2.2.2]oct-5-ylcarbonyl)piperidin-1-yl]-1H-pyrrolo[2,3-b]pyridin-3-yl}methylidene)-3-oxo-2,3-dihydro-1-benzofuran-5-yl]-3-pyridin-3-ylurea]
10 | < 5.00 | 5.66 | 7.96 | CN(C)C1CCN(C(=O)C2CCN(c3ccnc4c3c(C=C3Oc5ccc(NC(=O)Nc6cccnc6)cc5C3=O)cn4C)CC2)C1 (stereo not drawn) [Compound 210, 1-(2-{[4-(4-{[3-(dimethylamino)pyrrolidin-1-yl]carbonyl}piperidin-1-yl)-1-methyl-1H-pyrrolo[2,3-b]pyridin-3-yl]methylidene}-3-oxo-2,3-dihydro-1-benzofuran-5-yl)-3-pyridin-3-ylurea]
11 | < 5.00 | 5.03 | 7.31 | CN1CCC(N(C)C(=O)C2CCN(c3ccnc4c3c(C=C3Oc5ccc(NC(=O)Nc6cccnc6)cc5C3=O)cn4C)CC2)C1 (stereo not drawn) [Compound 205, N-methyl-1-[1-methyl-3-({3-oxo-5-[(pyridin-3-ylcarbamoyl)amino]-1-benzofuran-2(3H)-ylidene}methyl)-1H-pyrrolo[2,3-b]pyridin-4-yl]-N-(1-methylpyrrolidin-3-yl)piperidine-4-carboxamide]
12 | 5.70 | 5.06 | 7.18 | CCOC(=O)Nc1ccc2c(c1)C(=O)/C(=C/c1cn(C)c3nccc(N4CCC(C(=O)N(C)C)CC4)c13)O2 [Compound 171, ethyl[(2Z)-2-({4-[4-(dimethylcarbamoyl)piperidin-1-yl]-1-methyl-1H-pyrrolo[2,3-b]pyridin-3-yl}methylidene)-3-oxo-2,3-dihydro-1-benzofuran-5-yl]carbamate]
13 | 5.13 | 5.28 | 8.24 | Cn1cc(C=C2Oc3ccc(NC(=O)Nc4cccnc4)cc3C2=O)c2c(N3CCC(C(=O)NC4CCS(=O)(=O)C4)CC3)ccnc21 (stereo not drawn) [Compound 212, N-(1,1-dioxidotetrahydrothiophen-3-yl)-1-[1-methyl-3-({3-oxo-5-[(pyridin-3-ylcarbamoyl)amino]-1-benzofuran-2(3H)-ylidene}methyl)-1H-pyrrolo[2,3-b]pyridin-4-yl]piperidine-4-carboxamide]
14 | 7.59 | 7.41 | 9.00 | CONC(=O)c1ccc(-c2ccnc3c2c(/C=C2\Oc4cccc(O)c4C2=O)cn3C)cc1 [Compound 192, 4-{3-[(Z)-(4-hydroxy-3-oxo-1-benzofuran-2(3H)-ylidene)methyl]-1-methyl-1H-pyrrolo[2,3-b]pyridin-4-yl}-N-methoxybenzamide]

The next lines start with the compound.

Row | Compound | pIC50 (PI3Kα) | pIC50 (PI3Kγ) | pIC50 (mTOR)
15 | Cn1cc(/C=C2\Oc3cccc(O)c3C2=O)c2c(-c3cccc(O)c3)ccnc21 [Compound 125, (2Z)-4-hydroxy-2-{[4-(3-hydroxyphenyl)-1-methyl-1H-pyrrolo[2,3-b]pyridin-3-yl]methylene}-1-benzofuran-3(2H)-one] | 7.37 | 7.03 | 7.89
16 | Cn1cc(/C=C2\Oc3cc(O)cc(O)c3C2=O)c2c(-c3ccc(S(N)(=O)=O)cc3)ccnc21 [Compound 17, 4-{3-[(Z)-(4,6-dihydroxy-3-oxo-1-benzofuran-2(3H)-ylidene)methyl]-1-methyl-1H-pyrrolo[2,3-b]pyridin-4-yl}benzenesulfonamide] | 8.15 | 7.24 | 9.52
17 | Cn1cc(/C=C2\Oc3cccc(O)c3C2=O)c2c(-c3ccc(S(C)(=O)=O)cc3)ccnc21 [Compound 73, (2Z)-4-hydroxy-2-({1-methyl-4-[4-(methylsulfonyl)phenyl]-1H-pyrrolo[2,3-b]pyridin-3-yl}methylene)-1-benzofuran-3(2H)-one] | 7.64 | 7.12 | 8.51
18 | CN(C)c1cccc(-c2ccnc3c2c(/C=C2\Oc4cc(O)cc(O)c4C2=O)cn3C)c1 [Compound 52, (2Z)-2-({4-[3-(dimethylamino)phenyl]-1-methyl-1H-pyrrolo[2,3-b]pyridin-3-yl}methylene)-4,6-dihydroxy-1-benzofuran-3(2H)-one] | 6.91 | 6.70 | 9.22
19 | COc1ccc(-c2ccnc3c2c(/C=C2\Oc4cccc(O)c4C2=O)cn3C)cc1S(=O)(=O)N1CCCC1 [Compound 86, (2Z)-4-hydroxy-2-({4-[4-methoxy-3-(pyrrolidin-1-ylsulfonyl)phenyl]-1-methyl-1H-pyrrolo[2,3-b]pyridin-3-yl}methylene)-1-benzofuran-3(2H)-one] | 7.11 | 6.22 | 8.47
20 | 1-cyclopropyl-3-[(2Z)-2-{[1-methyl-4-(8-oxa-3-azabicyclo[3.2.1]oct-3-yl)-1H-pyrrolo[2,3-b]pyridin-3-yl]methylidene}-3-oxo-2,3-dihydro-1-benzofuran-5-yl]urea [Compound 237] | 6.54 | 5.67 | 7.64
21 | CN1CCN(c2ccnc3c2c(/C=C2\Oc4cccc(O)c4C2=O)cn3C)CC1 [Compound 47, (2Z)-4-hydroxy-2-{[1-methyl-4-(4-methylpiperazin-1-yl)-1H-pyrrolo[2,3-b]pyridin-3-yl]methylene}-1-benzofuran-3(2H)-one] | 6.76 | 6.19 | 8.55
22 | Cn1cc(/C=C2\Oc3cc(O)cc(O)c3C2=O)c2c(-c3cccnc3)ccnc21 [Compound 33, (2Z)-4,6-dihydroxy-2-[(1-methyl-4-pyridin-3-yl-1H-pyrrolo[2,3-b]pyridin-3-yl)methylene]-1-benzofuran-3(2H)-one] | 8.10 | 7.42 | 9.22
23 | Cn1cc(/C=C2\Oc3cccc(O)c3C2=O)c2c(-c3cc4ccccc4o3)ccnc21 [Compound 85, (2Z)-2-{[4-(1-benzofuran-2-yl)-1-methyl-1H-pyrrolo[2,3-b]pyridin-3-yl]methylene}-4-hydroxy-1-benzofuran-3(2H)-one] | 6.56 | 6.80 | 7.58
24 | CNc1ccc(-c2ccnc3c2c(/C=C2\Oc4cc(O)cc(O)c4C2=O)cn3C)cc1 [Compound 43, (2Z)-4,6-dihydroxy-2-({1-methyl-4-[4-(methylamino)phenyl]-1H-pyrrolo[2,3-b]pyridin-3-yl}methylene)-1-benzofuran-3(2H)-one] | 7.72 | 7.18 | 9.40
